Results published in ChEMBL document CHEMBL4507291 (2021).

Legend:
[1] = target: D(2) dopamine receptor (Homo sapiens) (UniProt P14416); details: Compound concentration 10.0 uM
[2] = target: T1, Mitogen-activated protein kinase kinase kinase 7 (Homo sapiens) (UniProt O43318); assay: MAP3K7/MAP3K7IP1 (TAK1-TAB1) Kinase screen; details: Compound concentration 1.0 uM
T1 sequence (whole entry): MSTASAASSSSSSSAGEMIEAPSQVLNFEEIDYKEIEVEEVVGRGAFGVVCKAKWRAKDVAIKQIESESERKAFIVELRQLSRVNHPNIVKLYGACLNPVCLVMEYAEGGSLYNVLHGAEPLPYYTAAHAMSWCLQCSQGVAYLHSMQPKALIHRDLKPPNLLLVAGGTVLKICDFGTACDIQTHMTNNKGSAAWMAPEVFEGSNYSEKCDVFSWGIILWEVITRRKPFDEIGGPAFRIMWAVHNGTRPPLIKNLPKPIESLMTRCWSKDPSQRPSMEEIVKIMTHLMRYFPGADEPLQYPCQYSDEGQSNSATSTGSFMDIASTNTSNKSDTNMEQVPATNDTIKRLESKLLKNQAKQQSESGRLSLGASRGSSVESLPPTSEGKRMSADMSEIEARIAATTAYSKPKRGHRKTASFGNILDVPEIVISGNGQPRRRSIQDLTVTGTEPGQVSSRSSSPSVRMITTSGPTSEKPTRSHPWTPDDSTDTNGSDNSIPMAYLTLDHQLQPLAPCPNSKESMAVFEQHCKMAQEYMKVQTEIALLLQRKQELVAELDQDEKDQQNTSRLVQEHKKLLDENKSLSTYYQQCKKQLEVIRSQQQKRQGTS

[3] = target: Histamine H4 receptor (Homo sapiens) (UniProt Q9H3N8); assay: Histamine H4 Eurofins-Panlabs radioligand binding assay; details: Compound concentration 10.0 uM
Histamine H4 receptor (Homo sapiens), sequence (Q9H3N8 whole entry): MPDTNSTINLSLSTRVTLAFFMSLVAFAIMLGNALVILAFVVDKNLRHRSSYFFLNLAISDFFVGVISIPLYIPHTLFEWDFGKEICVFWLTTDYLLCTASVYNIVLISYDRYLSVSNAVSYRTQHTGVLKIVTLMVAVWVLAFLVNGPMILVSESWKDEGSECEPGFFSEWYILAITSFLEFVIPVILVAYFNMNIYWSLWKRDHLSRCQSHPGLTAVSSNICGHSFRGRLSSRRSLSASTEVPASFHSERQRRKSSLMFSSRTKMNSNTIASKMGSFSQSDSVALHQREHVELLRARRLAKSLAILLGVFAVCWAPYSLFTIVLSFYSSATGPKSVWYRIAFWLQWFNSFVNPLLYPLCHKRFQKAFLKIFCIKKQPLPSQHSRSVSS

[4] = target: Eukaryotic elongation factor 2 kinase (Homo sapiens) (UniProt O00418); assay: EEF2K Kinase screen; details: Compound concentration 1.0 uM
Eukaryotic elongation factor 2 kinase (Homo sapiens), sequence (O00418 whole entry): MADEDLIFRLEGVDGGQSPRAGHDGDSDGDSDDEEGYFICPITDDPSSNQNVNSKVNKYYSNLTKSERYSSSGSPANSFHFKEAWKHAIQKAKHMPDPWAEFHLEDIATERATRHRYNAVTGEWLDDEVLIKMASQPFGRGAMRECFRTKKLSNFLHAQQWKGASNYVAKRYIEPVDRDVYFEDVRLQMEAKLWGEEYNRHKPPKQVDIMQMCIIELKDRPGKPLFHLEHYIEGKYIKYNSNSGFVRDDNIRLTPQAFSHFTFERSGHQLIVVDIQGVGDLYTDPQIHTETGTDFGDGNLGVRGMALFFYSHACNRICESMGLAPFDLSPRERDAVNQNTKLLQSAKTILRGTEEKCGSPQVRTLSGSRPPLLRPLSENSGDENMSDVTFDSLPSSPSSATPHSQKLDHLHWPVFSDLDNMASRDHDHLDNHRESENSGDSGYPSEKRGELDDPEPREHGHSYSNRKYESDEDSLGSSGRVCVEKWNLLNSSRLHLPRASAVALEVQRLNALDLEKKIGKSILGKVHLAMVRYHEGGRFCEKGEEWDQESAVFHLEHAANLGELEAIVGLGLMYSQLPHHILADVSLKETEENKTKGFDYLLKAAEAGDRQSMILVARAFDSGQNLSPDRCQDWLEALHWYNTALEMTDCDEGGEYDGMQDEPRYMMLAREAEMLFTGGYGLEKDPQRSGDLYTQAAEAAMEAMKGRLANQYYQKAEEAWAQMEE

[5] = target: Melanin-concentrating hormone receptor 1 (Homo sapiens) (UniProt Q99705); assay: Melanin-Concentrating Hormone MCH1 (SLC1) Eurofins-Panlabs radioligand binding assay; set-up: ligand concentration 0.05 nM; details: Compound concentration 10.0 uM
Melanin-concentrating hormone receptor 1 (Homo sapiens), sequence (Q99705 whole entry): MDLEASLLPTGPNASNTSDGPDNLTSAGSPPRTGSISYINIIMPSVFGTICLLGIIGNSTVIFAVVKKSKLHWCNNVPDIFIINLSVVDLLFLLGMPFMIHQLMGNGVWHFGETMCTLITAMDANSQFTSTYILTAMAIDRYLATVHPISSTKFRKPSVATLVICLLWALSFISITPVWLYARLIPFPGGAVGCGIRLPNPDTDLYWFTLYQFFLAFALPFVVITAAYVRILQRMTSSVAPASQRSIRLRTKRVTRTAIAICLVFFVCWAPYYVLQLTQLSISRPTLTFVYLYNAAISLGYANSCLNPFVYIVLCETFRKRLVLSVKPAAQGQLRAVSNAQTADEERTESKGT

[6] = target: Serine/threonine-protein kinase pim-1 (Homo sapiens) (UniProt P11309); assay: PIM1 Kinase screen; details: Compound concentration 1.0 uM
Serine/threonine-protein kinase pim-1 (Homo sapiens), sequence (P11309 whole entry, looked up): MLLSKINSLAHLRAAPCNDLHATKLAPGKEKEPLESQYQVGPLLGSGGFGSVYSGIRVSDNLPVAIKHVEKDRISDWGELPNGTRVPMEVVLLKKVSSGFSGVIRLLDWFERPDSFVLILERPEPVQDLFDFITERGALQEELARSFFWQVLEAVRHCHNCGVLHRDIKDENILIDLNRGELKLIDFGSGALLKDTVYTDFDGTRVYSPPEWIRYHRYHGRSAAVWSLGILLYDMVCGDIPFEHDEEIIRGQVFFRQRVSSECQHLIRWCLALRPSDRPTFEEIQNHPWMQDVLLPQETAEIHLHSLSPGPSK

[7] = target: Tyrosine-protein kinase Lck (Homo sapiens) (UniProt P06239); assay: LCK Kinase screen; details: Compound concentration 1.0 uM
Tyrosine-protein kinase Lck (Homo sapiens), sequence (P06239 2-509 limits assumed): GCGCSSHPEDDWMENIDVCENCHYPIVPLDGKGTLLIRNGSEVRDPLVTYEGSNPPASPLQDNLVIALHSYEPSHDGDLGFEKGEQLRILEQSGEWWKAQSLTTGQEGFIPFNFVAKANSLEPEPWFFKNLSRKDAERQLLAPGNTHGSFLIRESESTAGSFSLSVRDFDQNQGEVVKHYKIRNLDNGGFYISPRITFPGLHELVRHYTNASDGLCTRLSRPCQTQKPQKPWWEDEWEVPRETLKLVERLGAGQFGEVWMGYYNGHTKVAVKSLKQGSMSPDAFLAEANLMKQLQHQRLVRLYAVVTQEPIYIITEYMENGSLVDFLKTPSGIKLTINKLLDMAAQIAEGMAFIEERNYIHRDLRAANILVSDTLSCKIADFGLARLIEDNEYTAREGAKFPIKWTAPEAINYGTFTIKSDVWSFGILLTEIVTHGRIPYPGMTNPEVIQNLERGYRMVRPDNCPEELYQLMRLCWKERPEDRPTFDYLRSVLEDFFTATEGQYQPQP

[8] = target: Calcium/calmodulin-dependent protein kinase kinase 1 (Homo sapiens) (UniProt Q8N5S9); assay: CAMKK1 (CAMKKA) Kinase screen; details: Compound concentration 1.0 uM
[9] = target: Prostaglandin E2 receptor EP3 subtype (Homo sapiens) (UniProt P43115); assay: Prostanoid EP3 Eurofins-Panlabs radioligand binding assay; set-up: ligand concentration 0.5 nM, non-specific ligand with concentration 10 µM Prostaglandin EŽ2 (PGE2), incubation time 60 min, incubation temperature 25 °C; details: Compound concentration 10.0 uM
[10] = target: Casein kinase I isoform epsilon (Homo sapiens) (UniProt P49674); assay: CSNK1E (CK1 epsilon) Kinase screen; details: Compound concentration 1.0 uM
Casein kinase I isoform epsilon (Homo sapiens), sequence (P49674 whole entry, looked up, canonical isoform): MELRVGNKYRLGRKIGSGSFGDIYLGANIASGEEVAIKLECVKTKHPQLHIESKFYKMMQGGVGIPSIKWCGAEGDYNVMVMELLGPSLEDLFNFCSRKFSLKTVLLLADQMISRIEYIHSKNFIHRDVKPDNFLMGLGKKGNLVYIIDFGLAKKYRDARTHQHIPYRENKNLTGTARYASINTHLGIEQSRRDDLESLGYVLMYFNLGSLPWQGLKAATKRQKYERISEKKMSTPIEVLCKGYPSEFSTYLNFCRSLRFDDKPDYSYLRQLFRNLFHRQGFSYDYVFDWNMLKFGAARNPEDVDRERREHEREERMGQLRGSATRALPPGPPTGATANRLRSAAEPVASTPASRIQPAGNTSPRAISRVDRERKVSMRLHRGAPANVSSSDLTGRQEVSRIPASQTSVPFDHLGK

[11] = target: T2, Serine/threonine-protein kinase TBK1 (Homo sapiens) (UniProt Q9UHD2); assay: TBK1 Kinase screen; details: Compound concentration 1.0 uM
T2 sequence (whole entry): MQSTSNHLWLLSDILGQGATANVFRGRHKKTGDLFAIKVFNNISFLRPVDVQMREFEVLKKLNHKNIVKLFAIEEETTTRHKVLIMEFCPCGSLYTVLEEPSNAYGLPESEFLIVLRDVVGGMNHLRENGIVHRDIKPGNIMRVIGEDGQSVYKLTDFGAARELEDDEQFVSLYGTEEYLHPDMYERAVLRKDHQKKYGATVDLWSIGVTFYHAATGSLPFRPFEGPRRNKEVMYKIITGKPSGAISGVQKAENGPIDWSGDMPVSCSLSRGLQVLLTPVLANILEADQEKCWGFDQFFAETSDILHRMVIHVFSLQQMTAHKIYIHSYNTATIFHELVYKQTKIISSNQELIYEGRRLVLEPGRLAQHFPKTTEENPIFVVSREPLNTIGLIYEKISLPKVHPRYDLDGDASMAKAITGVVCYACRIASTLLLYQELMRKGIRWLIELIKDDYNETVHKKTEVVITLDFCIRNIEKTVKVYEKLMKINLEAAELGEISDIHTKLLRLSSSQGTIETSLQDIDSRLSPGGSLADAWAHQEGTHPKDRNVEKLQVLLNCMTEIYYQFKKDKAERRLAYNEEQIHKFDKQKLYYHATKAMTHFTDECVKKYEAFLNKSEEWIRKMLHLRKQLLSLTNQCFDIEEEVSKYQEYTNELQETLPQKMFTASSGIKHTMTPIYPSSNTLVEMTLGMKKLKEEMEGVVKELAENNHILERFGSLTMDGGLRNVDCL

[12] = target: T3, Ephrin type-B receptor 2 (Homo sapiens) (UniProt P29323); assay: EPHB2 Kinase screen; details: Compound concentration 1.0 uM
T3 sequence (whole entry): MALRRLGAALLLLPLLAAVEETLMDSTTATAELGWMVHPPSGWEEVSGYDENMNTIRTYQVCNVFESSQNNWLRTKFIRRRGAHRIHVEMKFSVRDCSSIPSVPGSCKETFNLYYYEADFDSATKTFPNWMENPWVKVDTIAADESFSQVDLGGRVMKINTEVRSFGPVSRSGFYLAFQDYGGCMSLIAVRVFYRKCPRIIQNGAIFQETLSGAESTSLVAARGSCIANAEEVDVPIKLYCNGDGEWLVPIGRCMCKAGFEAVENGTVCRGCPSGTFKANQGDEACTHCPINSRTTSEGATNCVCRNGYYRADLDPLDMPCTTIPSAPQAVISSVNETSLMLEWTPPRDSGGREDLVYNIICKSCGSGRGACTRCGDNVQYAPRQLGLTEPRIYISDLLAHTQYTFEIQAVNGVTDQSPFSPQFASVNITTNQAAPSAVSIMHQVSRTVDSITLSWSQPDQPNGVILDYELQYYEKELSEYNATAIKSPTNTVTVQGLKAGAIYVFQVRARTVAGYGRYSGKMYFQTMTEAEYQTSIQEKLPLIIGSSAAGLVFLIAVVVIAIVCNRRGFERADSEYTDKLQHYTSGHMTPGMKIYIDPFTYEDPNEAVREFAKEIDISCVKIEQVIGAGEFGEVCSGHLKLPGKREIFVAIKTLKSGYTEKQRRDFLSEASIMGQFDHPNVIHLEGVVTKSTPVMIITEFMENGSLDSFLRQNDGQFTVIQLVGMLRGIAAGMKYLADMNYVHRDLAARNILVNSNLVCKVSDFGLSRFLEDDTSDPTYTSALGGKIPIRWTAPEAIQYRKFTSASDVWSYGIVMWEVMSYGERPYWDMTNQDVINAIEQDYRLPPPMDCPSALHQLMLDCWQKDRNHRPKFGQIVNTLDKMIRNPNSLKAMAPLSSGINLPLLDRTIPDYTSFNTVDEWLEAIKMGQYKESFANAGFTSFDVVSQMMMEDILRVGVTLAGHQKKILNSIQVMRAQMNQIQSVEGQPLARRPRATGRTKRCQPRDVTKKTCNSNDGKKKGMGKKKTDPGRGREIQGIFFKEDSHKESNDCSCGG

[13] = target: Serine/threonine-protein kinase MARK2 (Homo sapiens) (UniProt Q7KZI7); assay: MARK2 Kinase screen; details: Compound concentration 1.0 uM
Serine/threonine-protein kinase MARK2 (Homo sapiens), sequence (Q7KZI7 whole entry): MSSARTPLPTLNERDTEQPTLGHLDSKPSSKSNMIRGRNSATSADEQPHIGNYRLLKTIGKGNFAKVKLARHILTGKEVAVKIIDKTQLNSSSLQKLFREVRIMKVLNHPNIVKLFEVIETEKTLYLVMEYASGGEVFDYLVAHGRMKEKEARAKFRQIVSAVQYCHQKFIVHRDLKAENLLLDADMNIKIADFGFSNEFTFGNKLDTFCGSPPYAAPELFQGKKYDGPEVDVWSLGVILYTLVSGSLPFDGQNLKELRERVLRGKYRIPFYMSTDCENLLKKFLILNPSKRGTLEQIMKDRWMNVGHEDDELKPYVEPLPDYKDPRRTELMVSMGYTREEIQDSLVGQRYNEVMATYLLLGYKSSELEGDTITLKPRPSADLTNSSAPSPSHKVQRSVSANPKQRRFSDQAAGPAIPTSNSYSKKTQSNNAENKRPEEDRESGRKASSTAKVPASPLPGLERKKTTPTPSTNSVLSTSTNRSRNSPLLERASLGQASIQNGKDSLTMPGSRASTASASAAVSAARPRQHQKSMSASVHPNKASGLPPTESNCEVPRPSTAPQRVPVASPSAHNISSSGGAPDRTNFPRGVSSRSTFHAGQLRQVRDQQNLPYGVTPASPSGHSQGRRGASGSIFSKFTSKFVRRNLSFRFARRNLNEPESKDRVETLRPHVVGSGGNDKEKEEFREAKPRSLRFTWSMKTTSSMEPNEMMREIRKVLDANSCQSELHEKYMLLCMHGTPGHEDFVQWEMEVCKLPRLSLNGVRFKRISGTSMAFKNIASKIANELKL

[14] = target: Protein kinase C gamma type (Homo sapiens) (UniProt P05129); assay: PRKCG (PKC gamma) Kinase screen; details: Compound concentration 1.0 uM

Measured: inhibition

D(2) dopamine receptor (Homo sapiens), sequence (P14416 whole entry): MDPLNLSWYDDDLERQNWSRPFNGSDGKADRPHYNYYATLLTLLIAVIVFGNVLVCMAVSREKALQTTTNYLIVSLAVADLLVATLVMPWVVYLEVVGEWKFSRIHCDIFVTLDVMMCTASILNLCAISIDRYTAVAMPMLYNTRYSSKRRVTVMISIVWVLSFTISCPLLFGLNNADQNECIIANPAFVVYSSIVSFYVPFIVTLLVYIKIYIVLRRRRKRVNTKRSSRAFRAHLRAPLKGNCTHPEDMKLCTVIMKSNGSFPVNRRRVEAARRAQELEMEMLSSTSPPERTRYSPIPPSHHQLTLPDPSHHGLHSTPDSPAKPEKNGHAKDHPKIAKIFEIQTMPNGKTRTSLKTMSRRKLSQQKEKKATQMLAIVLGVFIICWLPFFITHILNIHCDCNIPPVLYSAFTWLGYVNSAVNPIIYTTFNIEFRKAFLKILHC

C[C@@H]1CN(c2cc(-c3nn(C)c4ccc(OC5(C)CC5)cc34)ncn2)C[C@H](C)O1 [MLi-2-NC]
inactive: [1] -0.18%

C[C@@H]1CN(c2cc(-c3n[nH]c4ccc(OC5(C)CC5)cc34)ncn2)C[C@H](C)O1 [MLi-2]
inactive: [2] -4.42% | [3] -4% | [4] 4.28% | [5] 1% | [6] -2.73% | [7] 10.4% | [8] 12.6% | [9] -4% | [10] 8.14% | [11] 7.78% | [12] -1.14% | [13] 7.83% | [14] 1.24%
